Literature values, collected in patent publication US8058278B2, “Methods of enhancing mucosal hydration and mucosal clearance by treatment with sodium channel blockers and osmolytes” (Parion Sciences, Inc., priority 2006, dated 2011).

System: water permeability of airways
Conditions: amiloride used concurrently with hypertonic saline

In the case of `N=C(N)NC(=O)c1nc(Cl)c(N)nc1N` [Amiloride, amiloride], the “effect on water permeability of airways” value is given as “block the water permeability of airways”.
